Here are results for two compounds from patent US20150018305A1, “SIRTUIN INDUCER, TISSUE REPAIRING AGENT, HEPATOCYTE GROWTH FACTOR INDUCER, TISSUE HOMEOSTASIS MAINTENANCE AGENT, AND TLR4 AGONIST, HAVING HYALURONIC ACID FRAGMENT AS ACTIVE INGREDIENT” (HYALURONAN RESEARCH INSTITUTE, INC., priority 2012, published 2015).

Each structure is given as a SMILES string.

The test system of test [1] is human epidermal keratinocytes. In words: Change in size of human epidermal keratinocytes, image analysis (Test Example 3). Conditions: surface area on the image of a single cell; 0.01 ng/ml, 24 hours. Type of test: cell-based. The method, then:
(§1) A test of sirtuin induction in human epidermal keratinocytes was conducted in the same manner as in Test Example 1.
The change in cell size was analyzed using image analysis software (“Image J”). The 5 results in Table 2 are graphed in FIG. 5. The pixel count in the results indicates surface area on the image of a single cell, with higher values considered to indicate larger cells.

Test [2] has as its system stem cells of human epidermal keratinocytes. In words: Count of small dividing cells with high sirtuin protein expression, with or without TLR4/MD2 (Test Examples 4-6). Format: cell-based. The note with it: for sirtuin protein expression in stem cells (count of small dividing cells with high sirtuin expression) vs negative control: 24 hours; for sirtuin induction in stem cells upon addition of TLR4/MD2: 10 ng/ml fragment plus 1 g/ml of TLR4/MD2. Here is the method: as §1
The results are shown as average count within the observed visual field.
In the meantime, similar observations were made in relation to human epidermal keratinocytes cultured in a culture broth to which 10 ng/ml of hyaluronic acid fragment (4mer) and 1 g/ml of TLR4/MD2 (TLR4 (toll-like receptor 4) protein produced by genetic recombination techniques, made by R&D Systems Inc.) were added.
A test similar to Test Example 5 was carried out, using chemically synthesized three-unit size hyaluronic acid fragments (L3mer) in place of hyaluronic acid fragment (4mer).

Test [3] deals with liver of aged rat. Kind of test: Liver of aged rat preserved in organ preservation solution, microscopy and bleb count (Test Example 14). Conditions: for sinusoidal constriction and appearance of blebs in liver tissue slice: 100 ng/ml in organ preservation solution, SD rats aged 24 months. The method, then: The effect of action of the hyaluronic acid fragment on the liver of aged rat was investigated. The following test solutions were prepared.
(Test Solutions) • Organ preservation solution (University of Wisconsin solution: the standard solution used for organ preservation) • The above organ preservation solution, into which hyaluronic acid fragment (4mer) was dissolved to a final concentration of 100 ng/ml • The above organ preservation solution, into which hyaluronic acid fragment (L3mer) was dissolved to a final concentration of 100 ng/ml • The above organ preservation solution, into which hyaluronic acid fragment (L3mer) was dissolved to a final concentration of 100 ng/ml, then dissolving TLR4/MD2 into the above organ preservation solution, to a final concentration of 10 μg/ml.
SD rats aged 24 months (aged rats) were injected with the test solutions from the hepatic portal, and after perfusion of 7.5 ml, were preserved for six hours in the same solution at 37° C. Slices were prepared from blocks prepared by freezing of the livers embedded in OCT compound, and were subjected to microscope examination.
Prior to preservation, distinct sinusoids could be observed. […] Blebs (bubbles) that appear in ischemic liver tissue arise as a result of an activation of Ca ion-dependent proteolytic enzymes and a disorder of the cytoskeletal system, in which lowered ATP levels due to ischemia lead to effusion of Ca ions from the mitochondria to the cellular cytoplasm. In the course of passing through these changes, the liver cells experience cell death. Such changes have been confirmed to occur in clinical conditions such as pharmaceutical toxicity, aging, and the like, and in concanavalin A-induced liver damage.

In test [4] the test system is human large intestine epithelial cells (HT29 cells). Kind of test: Hydrogen peroxide induced aging of human large intestine epithelial cells, MTS assay (Test Examples 16-18). The note with it: for suppression of cellular aging (MTS value, OD 490 nm): hydrogen peroxide 10 μM 15 min; for suppression of cellular aging with TLR4/MD2 added (MTS): hydrogen peroxide 10 μM, 100 ng/ml plus TLR4/MD2 10 μg/ml, 3 hours. Type of test: cell-based. The method, then: Human large intestine epithelial cells (HT29 cells) were experienced cellular aging (decline in mitochondrial activity due to injury, or a drop in the MTS value once cell death occurs) due to stimulation by the hydrogen peroxide when treated with hydrogen peroxide, and it was investigated whether this process is affected by treatment with the hyaluronic acid fragment. Specifically, the following test was performed.
Using a DMEM culture medium (made by Wako Pure Chemical Industries, Ltd.), human large intestine epithelial cells (HT29 cells) were cultured by usual methods at 37° C. under 5% CO2. Hydrogen peroxide was added to the culture medium to a final concentration of 10 μM to bring about stimulation for a 15-minute period, and the culture broth was then transferred to DMEM culture medium containing no hyaluronic acid fragments; to DMEM culture medium containing hyaluronic acid fragment (4mer) in a final concentration of 100 ng/ml; or to DMEM culture medium containing the hyaluronic acid fragment (4mer) plus TLR4/MD2 in a final concentration of 10 μg/ml, and cultured for 3 hours.
(§2) After 3 hours had passed, an MTS assay was performed. On the basis of the action, in which MTS is converted to formazan by dehydrogenation in the mitochondria of the cell, OD 490 nm was measured to measure mitochondrial function.
Using hyaluronic acid fragment (4mer), hyaluronic acid fragment (L4mer) and hyaluronic acid fragment (L3mer) as test substances, tests similar to those of Test Example 16 were performed, except that the culture time following transfer to the culture medium containing the test substance was one hour.
Tests similar to those of Test Example 16 were performed, except for using hyaluronic acid fragment (L4mer), and hyaluronic acid fragment (L3mer) as test substances.

The test system of test [5] is human oral epithelial cells (Ca9-22 cells). Kind of test: Hydrogen peroxide induced aging of human oral epithelial cells, MTS assay (Test Example 19). Format: cell-based. The note with it: hydrogen peroxide 1 μM 15 min, then 100 ng/ml for 3 hours. Here is the method: It was investigated whether the process, in which mitochondrial function of human oral epithelial cells (Ca9-22 cells) declines when treated with hydrogen peroxide, is affected by treatment with the hyaluronic acid fragment. Specifically, the following test was performed.
Using a DMEM culture medium (made by Wako Pure Chemical Industries, Ltd.), human oral epithelial cells (Ca9-22 cells) were cultured by usual methods at 37° C. under 5% CO2. Hydrogen peroxide was added to the culture medium to a final concentration of 1 μM to bring about stimulation for a 15-minute period, and the culture broth was then transferred to DMEM culture medium containing no hyaluronic acid fragments; to DMEM culture medium containing hyaluronic acid fragment (L3mer) in a final concentration of 100 ng/ml; to DMEM culture medium containing hyaluronic acid fragment (4mer) in a final concentration of 100 ng/ml; or to DMEM culture medium containing 900 kDa hyaluronic acid in a final concentration of 100 ng/ml, and cultured for 3 hours.
as §2
(In general: Tetrazolium assays rely on reduction of a dye to a coloured formazan, in cell work by metabolically active cells.)

Test [6] relates to Keratin K14. In words: Keratinocyte marker Keratin K14 in human epidermal keratinocytes (Test Example 22). Type of test: cell-based. The note with it: for Keratin K14 induction with TLR4/MD2 added: plus TLR4/MD2 1 μg/ml; for cells with high expression of Keratin K14 (immunostaining intensity): stimulated as in Test Example 1. Here is the method:
(§3) Human epidermal keratinocytes were stimulated in the same manner as in Test Example 1, except for using the 4mer or the L3mer as the hyaluronic acid fragment, and further adding TLR4/MD2 to a final concentration of 1 μg/ml.
The cells in each well were stained with anti keratin K14 antibody, and the immunostaining intensity was measured with an Array Scan scanning device (made by Thermo Scientific). Keratin K14 is a marker of basal layer keratinocytes.

For test [7], the system named is filaggrin. In words: Keratinocyte marker Filaggrin in human epidermal keratinocytes (Test Example 23). Type of test: cell-based. Conditions: for filaggrin induction with TLR4/MD2 added: plus TLR4/MD2 1 μg/ml; for cells with high expression of filaggrin (immunostaining intensity): stimulated as in Test Example 1. Here is the method:
as §3
The cells in each well were stained with the anti filaggrin antibody, and the immunostaining intensity was measured with an Array Scan scanning device (made by Thermo Scientific). Filaggrin, which is produced by granular layer keratinocytes, is a marker of mature keratinocytes.

[8] abbreviates: then test substance for one hour.

In turn, `CC(=O)N[C@H]1[C@H](O[C@H]2[C@H](O)[C@@H](O)[C@H](O[C@H]3[C@H](O)[C@@H](CO)OC(O)[C@@H]3NC(C)=O)O[C@@H]2C(=O)O)O[C@H](CO)[C@@H](O)[C@@H]1O[C@@H]1O[C@H](C(=O)O)[C@@H](O)[C@H](O)[C@H]1O` (stereo partly drawn) [4mer, GlcA(-GlcNAc-GlcA)1-GlcNAc] showed an Average pixel count in test [1] of 124515.9333. For the same compound, the “sirtuin protein expression in stem cells (count of small dividing cells with high sirtuin expression) vs negative control” value (from here on “sirtuin protein expression … vs negative control”) in test [2] (0.01 ng/ml) is on record as “markedly promoted”. Further, in test [2], the “sirtuin induction in stem cells upon addition of TLR4/MD2” value is given as “completely inhibited”. The “sirtuin protein expression … vs negative control” value in test [2] (10 ng/ml) is listed as “markedly promoted”. Further, the “sinusoidal constriction and appearance of blebs in liver tissue slice” value in test [3] (six hours at 37° C.) is “sinusoidal constriction and appearance of blebs were suppressed”. Besides, the “suppression of cellular aging (MTS value, OD 490 nm)” value (shortened to “suppression … (MTS value, OD 490 nm)”) in test [4] (then 100 ng/ml for 3 hours) is listed as “suppressed cellular aging”. Also, the “suppression … (MTS value, OD 490 nm)” value in test [4] (setting [8]) was “showed effect in suppressing cellular aging”. Further, the “suppression of cellular aging with TLR4/MD2 added (MTS)” value in test [4] was “inhibited by addition of TLR4/MD2”. Also, the “suppression of cellular aging (MTS, mitochondrial function)” value in test [5] was “suppress cellular aging”. Moreover, in test [6], the “Keratin K14 induction with TLR4/MD2 added” value is reported as “inhibited by addition of TLR4/MD2” and the “cells with high expression of Keratin K14 (immunostaining intensity)” value is reported as “cells with high expression of Keratin K14 increased”. Moreover, in test [7], the “filaggrin induction with TLR4/MD2 added” value is “inhibited by addition of TLR4/MD2” and the “cells with high expression of filaggrin (immunostaining intensity)” value is “cells with high expression of filaggrin increased”.

With `CC(=O)NC1C(O[C@@H]2OC(C(=O)O)[C@@H](O)C(O)C2O)[C@H](O)C(CO)O[C@H]1O[C@@H]1C(C(=O)O)O[C@@H](OCCCN=[N+]=[N-])C(O)C1O` (stereo partly drawn) [L3mer], the “sirtuin induction in stem cells upon addition of TLR4/MD2” value in test [2] is given as “substantially completely inhibited”. Besides, the “sirtuin protein expression … vs negative control” value in test [2] (10 ng/ml) is on record as “give rise to sirtuin induction”. Further, the “sinusoidal constriction and appearance of blebs in liver tissue slice” value in test [3] (six hours at 37° C.) is “sinusoidal constriction and appearance of blebs were suppressed”. Also, in test [3] (100 ng/ml plus TLR4/MD2 10 μg/ml), the “effect in suppressing the appearance of blebs with TLR4/MD2 added (bleb count)” value is recorded as “reduced by the addition of TLR4/MD2”. Moreover, in test [3] (100 ng/ml plus TLR4/MD2 10 μg/ml, six hours at 37° C.), the “condition of liver tissue slice with TLR4/MD2 added” value was “numerous blebs (bubbles) appeared”. In addition, the “effect of suppressing the appearance of blebs (bleb count per unit surface area)” value in test [3] (100 ng/ml, comparison L3mer vs 4mer) is listed as “higher with L3mer treatment than with 4mer treatment”. Also, the “suppression … (MTS value, OD 490 nm)” value in test [4] (then 100 ng/ml for 3 hours) is on record as “showed effect in suppressing cellular aging”. Moreover, in test [4] (setting [8]), the “suppression … (MTS value, OD 490 nm)” value is “showed effect in suppressing cellular aging”. Further, the “suppression of cellular aging with TLR4/MD2 added (MTS)” value in test [4] is given as “inhibited by the addition of TLR4/MD2”. Further, in test [5], the “suppression of cellular aging (MTS, mitochondrial function)” value was “suppress cellular aging”. Besides, in test [6], the “Keratin K14 induction with TLR4/MD2 added” value is “inhibited by addition of TLR4/MD2” and the “cells with high expression of Keratin K14 (immunostaining intensity)” value was “cells with high expression of Keratin K14 increased”. In test [7], the “filaggrin induction with TLR4/MD2 added” value is given as “inhibited by addition of TLR4/MD2” and the “cells with high expression of filaggrin (immunostaining intensity)” value was “cells with high expression of filaggrin increased”.
